Earlier results in patent US20220081482A1, “ANTICANCER COMPOSITIONS COMPRISING IMMUNE CHECKPOINT INHIBITORS” (priority 2018, published 2022).

Settings: orally administered to rats

CN(C)C(=N)N=C(N)N [metformin]
LD50: 1,450 mg/kg
